Experimental findings from PubChem BioAssay (NCI) are described below.

Among the test systems are M14 melanoma; K-562 leukemia; SF-268 CNS; CAKI-1 renal; A549 NSCLC; HL-60(TB) leukemia; OVCAR-3 ovarian; CCRF-CEM leukemia; MDA-N; HS 578T breast; COLO 205 colon; PC-3 prostate; T-47D breast.
Holding throughout (test): NCI tumour cell line growth inhibition, 48 h

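These data come from cells grown in 96-well plates and exposed to compound for 48 hours at five concentrations. The concentration for full growth arrest is given as TGI.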

Consider `CCC(c1ccc(OC)cc1)C1NC(=S)NC1=O` (configuration not stated), for which the TGI with M14 melanoma was above 50 µM; with K-562 leukemia, above 50 µM; in the experiment on SF-268 CNS, above 50 µM; in the experiment on CAKI-1 renal, above 50 µM; in the experiment on A549 NSCLC, above 50 µM; with HL-60(TB) leukemia, 47.3 µM. For the same compound, the TGI with OVCAR-3 ovarian, in the experiment with CCRF-CEM leukemia, with MDA-N, in the experiment on HS 578T breast, with COLO 205 colon and with PC-3 prostate was above 50 µM throughout. Besides, in the experiment on T-47D breast, the TGI was above 50 µM.

`CN1CC=C(c2cccn2C)CC1`: the TGI with M14 melanoma, in the experiment with K-562 leukemia, in the experiment on SF-268 CNS, in the experiment with CAKI-1 renal, in the experiment on A549 NSCLC and in the experiment with HL-60(TB) leukemia was above 100 µM each time. Moreover, the TGI in the experiment on OVCAR-3 ovarian, in the experiment with CCRF-CEM leukemia, with MDA-N, in the experiment with HS 578T breast, in the experiment on COLO 205 colon and with PC-3 prostate was above 100 µM throughout. This compound came in with a TGI in the experiment with T-47D breast above 100 µM.

Regarding `COc1ccccc1N1C(=O)CSC1c1cc(OC)c(OC)c(OC)c1` (configuration not stated), the TGI in the experiment on M14 melanoma is above 100 µM; with K-562 leukemia it was above 100 µM; in the experiment with SF-268 CNS, above 100 µM; in the experiment on CAKI-1 renal it was above 100 µM; in the experiment on A549 NSCLC, above 100 µM; in the experiment with HL-60(TB) leukemia, 97.7 µM. The TGI with OVCAR-3 ovarian was above 100 µM; with CCRF-CEM leukemia, 76.6 µM; in the experiment on MDA-N it was 44.7 µM; with HS 578T breast, above 100 µM; in the experiment with COLO 205 colon, above 100 µM; with PC-3 prostate, above 100 µM. The compound further had a TGI in the experiment on T-47D breast above 38.3 µM.

As for `COC(=O)[C@]1(C)CCC[C@]2(C)[C@@H](CCC(=O)C(C)C)[C@]3(C=O)O[C@@H]3C[C@H]21`, the TGI was above 100 µM in the experiment on M14 melanoma; above 100 µM with K-562 leukemia; above 100 µM in the experiment with SF-268 CNS; 31.9 µM in the experiment with CAKI-1 renal; above 100 µM with A549 NSCLC; above 100 µM in the experiment on HL-60(TB) leukemia. Besides, the TGI is above 100 µM with OVCAR-3 ovarian; above 100 µM in the experiment on CCRF-CEM leukemia; 75.1 µM in the experiment on MDA-N; above 100 µM with HS 578T breast; above 100 µM with COLO 205 colon; above 100 µM in the experiment on PC-3 prostate. Moreover, the TGI in the experiment on T-47D breast came out at 95.7 µM.

Turning to `CC(CNC(=O)c1ccccc1)(CNC(=O)c1ccccc1)[N+](=O)[O-]`, the TGI in the experiment with M14 melanoma, in the experiment on K-562 leukemia, in the experiment with SF-268 CNS, in the experiment on CAKI-1 renal, with A549 NSCLC and in the experiment with HL-60(TB) leukemia was above 100 µM each time. Besides, the TGI with MDA-N, in the experiment on HS 578T breast, in the experiment with COLO 205 colon, in the experiment on PC-3 prostate and with T-47D breast was above 100 µM throughout.

As for `COCC12CCC(OC)C34C5CC6(O)C(OC)C=C(C5C6OC(=O)c5ccccc5)C(C(OC)C13)C4N(C)C2` (configuration not stated), the TGI in the experiment on M14 melanoma, in the experiment on SF-268 CNS, in the experiment on CAKI-1 renal, with A549 NSCLC, in the experiment on HL-60(TB) leukemia and with OVCAR-3 ovarian was above 100 µM throughout. In addition, the TGI in the experiment with CCRF-CEM leukemia, in the experiment with MDA-N, in the experiment with HS 578T breast, with COLO 205 colon, in the experiment on PC-3 prostate and with T-47D breast was above 100 µM throughout.

With `Cn1nc(-c2ccccc2)c2c(-c3ccccc3)c3cc(Cl)ccc3nc21`, the TGI in the experiment with M14 melanoma, with K-562 leukemia, in the experiment on SF-268 CNS, in the experiment on CAKI-1 renal, with A549 NSCLC and with HL-60(TB) leukemia was above 100 µM throughout. In addition, the TGI with OVCAR-3 ovarian, in the experiment with CCRF-CEM leukemia, in the experiment with MDA-N, in the experiment with HS 578T breast, in the experiment with PC-3 prostate and with T-47D breast was above 100 µM each time.

For `Cc1ccc(SCC(CF)OC(C)n2cnc3c(Cl)nc(N)nc32)cc1` (configuration not stated), the TGI in the experiment with M14 melanoma is above 100 µM; with SF-268 CNS, above 100 µM; in the experiment with CAKI-1 renal, above 100 µM; in the experiment on A549 NSCLC, above 100 µM; with HL-60(TB) leukemia, 86.3 µM; in the experiment on OVCAR-3 ovarian, above 100 µM. In addition, the TGI in the experiment on CCRF-CEM leukemia, with MDA-N, in the experiment with HS 578T breast, in the experiment with COLO 205 colon, in the experiment with PC-3 prostate and in the experiment with T-47D breast was above 100 µM each time.

For `S=C(Nc1ccc2c(c1)oc1ccccc12)c1cccs1`, the TGI with M14 melanoma, with SF-268 CNS, in the experiment with CAKI-1 renal, with A549 NSCLC, with HL-60(TB) leukemia and in the experiment with OVCAR-3 ovarian was above 100 µM each time. Also, the TGI with CCRF-CEM leukemia, in the experiment on MDA-N, with HS 578T breast, in the experiment on COLO 205 colon, with PC-3 prostate and with T-47D breast was above 100 µM in each case.

On to `COC(=O)[C@@H](OC(C)=O)[C@@H](OC(C)=O)c1nnc2ccc(Cl)nn12`, for which the TGI in the experiment with M14 melanoma, in the experiment with SF-268 CNS, in the experiment with CAKI-1 renal, in the experiment on A549 NSCLC, in the experiment with HL-60(TB) leukemia and with OVCAR-3 ovarian was above 100 µM throughout. Further, the TGI with CCRF-CEM leukemia, in the experiment with MDA-N, in the experiment on HS 578T breast, with COLO 205 colon, with PC-3 prostate and in the experiment with T-47D breast was above 100 µM each time.

Consider `CCN(CC)C(=S)N/N=C/c1cc(OC)ccc1O`, for which the TGI was 16.6 µM with M14 melanoma; above 100 µM in the experiment on K-562 leukemia; 11.3 µM in the experiment with SF-268 CNS; above 100 µM in the experiment on A549 NSCLC; 7.44 µM with HL-60(TB) leukemia; above 100 µM in the experiment with OVCAR-3 ovarian. In addition, the TGI was 5.71 µM in the experiment on CCRF-CEM leukemia; above 100 µM with MDA-N; above 100 µM in the experiment on HS 578T breast; above 100 µM in the experiment with COLO 205 colon; above 100 µM in the experiment on PC-3 prostate; above 100 µM in the experiment with T-47D breast.

Take `CCOC(=O)C1(C#N)C(C#N)(C#N)C1(C#N)C#N`: the TGI in the experiment on M14 melanoma, with K-562 leukemia, with SF-268 CNS, in the experiment with CAKI-1 renal, in the experiment with A549 NSCLC and with HL-60(TB) leukemia was above 100 µM throughout. Besides, the TGI in the experiment with CCRF-CEM leukemia, with MDA-N, with HS 578T breast, with COLO 205 colon, with PC-3 prostate and in the experiment on T-47D breast was above 100 µM throughout.

For the compound `C(=N\NC1=NCCN1)/c1cccc2cc3ccncc3nc12`, the TGI with M14 melanoma was found to be 28.3 µM; in the experiment with SF-268 CNS, 14.2 µM; in the experiment with CAKI-1 renal, 14.1 µM; in the experiment with A549 NSCLC, 20.2 µM; in the experiment with HL-60(TB) leukemia it was 2.76 µM; in the experiment on OVCAR-3 ovarian, 17.1 µM. Besides, the TGI in the experiment with CCRF-CEM leukemia is 3.8 µM; in the experiment on MDA-N, 11 µM; in the experiment on HS 578T breast, 61.3 µM; in the experiment with COLO 205 colon it was 15.5 µM; with PC-3 prostate, 13.7 µM; in the experiment on T-47D breast it was 12.7 µM.

For `CC(C)CC(NC=O)C(=O)NC(Cc1ccccc1)NC(=O)CNC(=O)C(C)NC(=O)C(N)Cc1ccc(O)cc1` (configuration not stated), the TGI with M14 melanoma, in the experiment with K-562 leukemia, in the experiment with SF-268 CNS, in the experiment on CAKI-1 renal, in the experiment with A549 NSCLC and with HL-60(TB) leukemia was above 100 µM in each case. The TGI with OVCAR-3 ovarian, in the experiment on MDA-N, with HS 578T breast, in the experiment on COLO 205 colon, with PC-3 prostate and in the experiment on T-47D breast was above 100 µM in each case.

As to `Cc1cnc2c(c1)C(=O)N(c1ccc([N+](=O)[O-])cc1)S2(=O)=O`, the TGI in the experiment with M14 melanoma, in the experiment on SF-268 CNS, in the experiment on CAKI-1 renal, in the experiment on A549 NSCLC, in the experiment with HL-60(TB) leukemia and in the experiment on OVCAR-3 ovarian was above 100 µM in each case. Also, the TGI in the experiment on CCRF-CEM leukemia, in the experiment on MDA-N, in the experiment on HS 578T breast, in the experiment with COLO 205 colon, in the experiment with PC-3 prostate and in the experiment with T-47D breast was above 100 µM each time.

In the case of `O=C(Oc1c(Br)cc(Br)cc1C(=O)Oc1ccccc1)C(=O)Oc1c(Br)cc(Br)cc1C(=O)Oc1ccccc1`, the TGI in the experiment with M14 melanoma is above 100 µM; in the experiment on K-562 leukemia it was 55.7 µM; in the experiment with SF-268 CNS, above 100 µM; in the experiment with CAKI-1 renal it was 57.9 µM; in the experiment with A549 NSCLC, 73.8 µM; in the experiment on HL-60(TB) leukemia, above 100 µM. Moreover, the TGI is 66.2 µM in the experiment with OVCAR-3 ovarian; 81.3 µM with MDA-N; above 100 µM in the experiment on HS 578T breast; 51.8 µM in the experiment on COLO 205 colon; 69.6 µM in the experiment on PC-3 prostate; 75 µM with T-47D breast.

Consider `COc1cc2cc3c4cc(OC)c(OC)cc4cc[n+]3c(C)c2cc1OC`, for which the TGI in the experiment with K-562 leukemia, in the experiment on SF-268 CNS, with CAKI-1 renal, with A549 NSCLC, with HL-60(TB) leukemia and in the experiment on OVCAR-3 ovarian was above 100 µM throughout. For the same compound, the TGI in the experiment on CCRF-CEM leukemia, with MDA-N, in the experiment on HS 578T breast, in the experiment on COLO 205 colon, with PC-3 prostate and with T-47D breast was above 100 µM throughout.
